Measurements taken from ChEMBL document CHEMBL6182831, “Thiazole-fused androstenone and ethisterone derivatives: potent β- and γ-actin cytoskeleton inhibitors to treat melanoma tumors” (RSC Med Chem, 2025).

Tests used:
Type in all cases: functional
B16-F10 = assay: Cytotoxicity against mouse B16-F10 cells assessed as inhibition of cell growth incubated for 24 hrs by resazurin staining based analysis; details: B16-F10, 24 h
LOX IMVI = assay: Cytotoxicity against human LOX IMVI cells assessed as inhibition of cell growth incubated for 24 hrs by resazurin staining based analysis
SK-MEL-28 = assay: Cytotoxicity against human SK-MEL-28 cells assessed as inhibition of cell growth incubated for 24 hrs by resazurin staining based analysis; details: SK-MEL-28, 24 h
SK-MEL-25 = assay: Cytotoxicity against human SK-MEL-25 cells assessed as inhibition of cell growth incubated for 24 hrs by resazurin staining based analysis; details: SK-MEL-25, 24 h
SK-MEL-5 = assay: Cytotoxicity against human SK-MEL-5 cells assessed as inhibition of cell growth incubated for 24 hrs by resazurin staining based analysis; details: SK-MEL-5, 24 h

Structure (SMILES) | IC50 (B16-F10) | IC50 (LOX IMVI) | IC50 (SK-MEL-28) | IC50 (SK-MEL-25) | IC50 (SK-MEL-5)
C[C@]12CCc3nc(Nc4ccccc4)sc3C1=CC[C@@H]1[C@@H]2CC[C@]2(C)C(=O)CC[C@@H]12 | 5.8 µM | 2.7 µM | 6.1 µM | 6.8 µM | 10.6 µM
C#C[C@]1(O)CC[C@H]2[C@@H]3CC=C4c5sc(Nc6cccc(C)n6)nc5CC[C@]4(C)[C@H]3CC[C@@]21C | 6.5 µM | 2.8 µM | 3 µM | 5.1 µM | 3.9 µM
C#C[C@]1(O)CC[C@H]2[C@@H]3CC=C4c5sc(-c6ccc7c(c6)OCO7)nc5CC[C@]4(C)[C@H]3CC[C@@]21C | 13 µM | > 20 µM | 6.1 µM | 4.2 µM | 4.9 µM
C[C@]12CCc3nc(Nc4ccccc4F)sc3C1=CC[C@@H]1[C@@H]2CC[C@]2(C)C(=O)CC[C@@H]12 | 5.4 µM | 6.7 µM | 6.4 µM | > 20 µM | > 20 µM
C#C[C@]1(O)CC[C@H]2[C@@H]3CC=C4c5sc(Nc6ccc(OC)cc6OC)nc5CC[C@]4(C)[C@H]3CC[C@@]21C | 7.7 µM | 3.4 µM | 4.7 µM | 3.3 µM | 3 µM
C[C@]12CCc3nc(Nc4ccc(F)cc4F)sc3C1=CC[C@@H]1[C@@H]2CC[C@]2(C)C(=O)CC[C@@H]12 | 5.5 µM | 2.8 µM | 5.3 µM | > 20 µM | 11.5 µM
C[C@]12CCc3nc(Nc4ccc(F)cc4)sc3C1=CC[C@@H]1[C@@H]2CC[C@]2(C)C(=O)CC[C@@H]12 | 4.5 µM | 1.8 µM | 3.4 µM | 1.4 µM | 6.4 µM
C[C@]12CCc3nc(NCCc4ccccc4)sc3C1=CC[C@@H]1[C@@H]2CC[C@]2(C)C(=O)CC[C@@H]12 | 6.1 µM | 9 µM | 5.4 µM | > 20 µM | 5.2 µM
C#C[C@]1(O)CC[C@H]2[C@@H]3CC=C4c5sc(Nc6cc(OC)ccc6Cl)nc5CC[C@]4(C)[C@H]3CC[C@@]21C | 9.7 µM | 3.2 µM | 3.4 µM | 3.1 µM | 4.8 µM
C#C[C@]1(O)CC[C@H]2[C@@H]3CC=C4c5sc(Nc6ccc(C)cn6)nc5CC[C@]4(C)[C@H]3CC[C@@]21C | 7.7 µM | 3.6 µM | 4.6 µM | 4.8 µM | 3.7 µM
C#C[C@]1(O)CC[C@H]2[C@@H]3CC=C4c5sc(Nc6ncccn6)nc5CC[C@]4(C)[C@H]3CC[C@@]21C | 13.5 µM | 7.8 µM | 2.8 µM | 5.7 µM | 4.9 µM
C#C[C@]1(O)CC[C@H]2[C@@H]3CC=C4c5sc(N6CCN(C)CC6)nc5CC[C@]4(C)[C@H]3CC[C@@]21C | 2.8 µM | 7.4 µM | 2 µM | 2.8 µM | 2.6 µM
Cc1cc(C)cc(Nc2nc3c(s2)C2=CC[C@@H]4[C@H](CC[C@]5(C)C(=O)CC[C@@H]45)[C@@]2(C)CC3)c1 | 8 µM | 2.5 µM | 2.5 µM | 3.2 µM | > 20 µM
C#C[C@]1(O)CC[C@H]2[C@@H]3CC=C4c5sc(Nc6cc(C)cc(C)c6)nc5CC[C@]4(C)[C@H]3CC[C@@]21C | 5.8 µM | 3.6 µM | 5 µM | 3.8 µM | 3.9 µM
C#C[C@]1(O)CC[C@H]2[C@@H]3CC=C4c5sc(Nc6cccc(Cl)n6)nc5CC[C@]4(C)[C@H]3CC[C@@]21C | 3.8 µM | 5.5 µM | 2.4 µM | 5.7 µM | 2.7 µM
C#C[C@]1(O)CC[C@H]2[C@@H]3CC=C4c5sc(-c6ccc(O)cc6)nc5CC[C@]4(C)[C@H]3CC[C@@]21C | 4.7 µM | 3.3 µM | 2.5 µM | 3.7 µM | 3.2 µM
C#C[C@]1(O)CC[C@H]2[C@@H]3CC=C4c5sc(Nc6cc(Cl)ccn6)nc5CC[C@]4(C)[C@H]3CC[C@@]21C | 3.8 µM | 3 µM | 2.8 µM | 4.4 µM | 3.6 µM
C[C@]12CCc3nc(Nc4ccccn4)sc3C1=CC[C@@H]1[C@@H]2CC[C@]2(C)C(=O)CC[C@@H]12 | 5.9 µM | 2.3 µM | 8.9 µM | 11.8 µM | 7.1 µM
C#C[C@]1(O)CC[C@H]2[C@@H]3CC=C4c5sc(Nc6ccc(F)cn6)nc5CC[C@]4(C)[C@H]3CC[C@@]21C | 3.1 µM | 5.4 µM | 3.5 µM | 3.2 µM | 2.8 µM

Structure (SMILES) | IC50 (B16-F10) | IC50 (LOX IMVI) | IC50 (SK-MEL-28) | IC50 (SK-MEL-25) | IC50 (SK-MEL-5)
C#C[C@]1(O)CC[C@H]2[C@@H]3CC=C4c5sc(Nc6ncccc6C)nc5CC[C@]4(C)[C@H]3CC[C@@]21C | 2.9 µM | 4.8 µM | 2.4 µM | > 20 µM | 5.5 µM
C#C[C@]1(O)CC[C@H]2[C@@H]3CC=C4c5sc(Nc6cc(OC)ccc6OC)nc5CC[C@]4(C)[C@H]3CC[C@@]21C | 7.2 µM | 2.4 µM | 5 µM | 3.4 µM | 3.5 µM
Cc1ccc(Nc2nc3c(s2)C2=CC[C@@H]4[C@H](CC[C@]5(C)C(=O)CC[C@@H]45)[C@@]2(C)CC3)c(C)c1 | 6.1 µM | 3.6 µM | 1.9 µM | 4.4 µM | 6.6 µM
C#C[C@]1(O)CC[C@H]2[C@@H]3CC=C4c5sc(Nc6ccncc6)nc5CC[C@]4(C)[C@H]3CC[C@@]21C | 6.7 µM | 2.5 µM | 4.2 µM | 7.9 µM | 2.9 µM
Cc1ccc(Nc2nc3c(s2)C2=CC[C@@H]4[C@H](CC[C@]5(C)C(=O)CC[C@@H]45)[C@@]2(C)CC3)cc1 | 4.9 µM | 4.2 µM | 4 µM | 4.3 µM | 7.3 µM
COc1ccc(OC)c(Nc2nc3c(s2)C2=CC[C@@H]4[C@H](CC[C@]5(C)C(=O)CC[C@@H]45)[C@@]2(C)CC3)c1 | 6.4 µM | 6.2 µM | > 20 µM | > 20 µM | > 20 µM
C[C@]12CCc3nc(Nc4ccc(OC(F)(F)F)cc4)sc3C1=CC[C@@H]1[C@@H]2CC[C@]2(C)C(=O)CC[C@@H]12 | 11.7 µM | 9.3 µM | > 20 µM | 12.5 µM | > 20 µM
C#C[C@]1(O)CC[C@H]2[C@@H]3CC=C4c5sc(-c6cccc(F)c6)nc5CC[C@]4(C)[C@H]3CC[C@@]21C | 8.5 µM | 15.3 µM | 14 µM | > 20 µM | 20 µM
C[C@]12CCc3nc(Nc4ncccn4)sc3C1=CC[C@@H]1[C@@H]2CC[C@]2(C)C(=O)CC[C@@H]12 | 3 µM | > 20 µM | > 20 µM | 1.8 µM | 1.3 µM
C#C[C@]1(O)CC[C@H]2[C@@H]3CC=C4c5sc(-c6cccc(O)c6)nc5CC[C@]4(C)[C@H]3CC[C@@]21C | 2.9 µM | 4.1 µM | 6 µM | 6.6 µM | 3.5 µM
C#C[C@]1(O)CC[C@H]2[C@@H]3CC=C4c5sc(-c6ccc(F)cc6)nc5CC[C@]4(C)[C@H]3CC[C@@]21C | 13.9 µM | 15.6 µM | > 20 µM | > 20 µM | > 20 µM
C#C[C@]1(O)CC[C@H]2[C@@H]3CC=C4c5sc(Nc6ccc(Cl)cn6)nc5CC[C@]4(C)[C@H]3CC[C@@]21C | 3 µM | 5.4 µM | 3.7 µM | 8.3 µM | 4.8 µM
C[C@]12CCc3nc(Nc4cccc(F)c4)sc3C1=CC[C@@H]1[C@@H]2CC[C@]2(C)C(=O)CC[C@@H]12 | 2.7 µM | 1.6 µM | 4.5 µM | 4.2 µM | 6.7 µM
C#C[C@]1(O)CC[C@H]2[C@@H]3CC=C4c5sc(Nc6ccccn6)nc5CC[C@]4(C)[C@H]3CC[C@@]21C | 7.6 µM | 7.5 µM | 3.4 µM | 4 µM | 2.6 µM
C#C[C@]1(O)CC[C@H]2[C@@H]3CC=C4c5sc(Nc6cccnc6)nc5CC[C@]4(C)[C@H]3CC[C@@]21C | 10.7 µM | 2.6 µM | 2.3 µM | 2.1 µM | 3 µM
C[C@]12CCc3nc(Nc4cccc(O)c4)sc3C1=CC[C@@H]1[C@@H]2CC[C@]2(C)C(=O)CC[C@@H]12 | 6.7 µM | 2.2 µM | 12.6 µM | 4.8 µM | > 20 µM
C#C[C@]1(O)CC[C@H]2[C@@H]3CC=C4c5sc(Nc6ccc(C)c(Cl)c6)nc5CC[C@]4(C)[C@H]3CC[C@@]21C | 4.9 µM | 3.9 µM | 5.6 µM | 4.6 µM | 4.3 µM
COc1ccc(Cl)cc1Nc1nc2c(s1)C1=CC[C@@H]3[C@H](CC[C@]4(C)C(=O)CC[C@@H]34)[C@@]1(C)CC2 | 3.6 µM | 3 µM | 4.8 µM | > 20 µM | > 20 µM
C#C[C@]1(O)CC[C@H]2[C@@H]3CC=C4c5sc(Nc6cc(C)cc(C)n6)nc5CC[C@]4(C)[C@H]3CC[C@@]21C | 10.2 µM | 4.1 µM | 5.5 µM | 6.5 µM | 2.5 µM
